Data as given in patent US11078170B2 (Assembly Biosciences, Inc., priority 2017, dated 2021).

Test system: HBV viral production from HepAD38 cells
Assay: Activity of test compounds on viral production from HepAD38 cells (viral load by qPCR of HBV core sequence in supernatant)
Assay type: cell-based
Settings: Hepatitis B virus, 120 h, 5 days incubation, HBV DNA in supernatant by qPCR, top concentration 10 μM, read-out: Viral Load EC50 Activity range
Method in brief: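 HepAD38 cells, 50,000/well in tetracycline-free 2% FBS medium, treated 5 days at 37° C. with compound from 10 μM top concentration. HBV DNA in supernatant quantified by TaqMan qPCR of core sequence against DNA standards, relative to DMSO wells; CellTiter-Glo viability read in parallel. EC50/CC50 from four-parameter logistic fit.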

SMILES	EC50 [µM]
CN1[C@H](C(=O)Nc2ccc(F)c(Cl)c2)C[C@H](c2ccc(-c3cncs3)s2)NS1(=O)=O [HBV-CSU-268-ISO-I, Cis-N-(3-Chloro-4-fluorophenyl)-2-methyl-5-(5-(thiazol-5-yl)thiophen-2-yl)-1,2,6-thiadiazinane-3-carboxamide 1,1-dioxide]	< 1
CN1[C@@H](C(=O)Nc2ccc(F)c(Cl)c2)C[C@@H](c2ccc(-c3cncs3)s2)NS1(=O)=O [HBV-CSU-268-ISO-II, Cis-N-(3-Chloro-4-fluorophenyl)-2-methyl-5-(5-(thiazol-5-yl)thiophen-2-yl)-1,2,6-thiadiazinane-3-carboxamide 1,1-dioxide]	> 5
CN1[C@H](C(=O)Nc2ccc(F)c(Cl)c2)C[C@H](c2ccc(-c3cnco3)s2)NS1(=O)=O [HBV-CSU-269-ISO-I, Cis-N-(3-Chloro-4-fluorophenyl)-2-methyl-5-(5-(oxazol-5-yl)thiophen-2-yl)-1,2,6-thiadiazinane-3-carboxamide 1,1-dioxide]	< 1
CN1[C@@H](C(=O)Nc2ccc(F)c(Cl)c2)C[C@@H](c2ccc(-c3cnco3)s2)NS1(=O)=O [HBV-CSU-269-ISO-II, Cis-N-(3-Chloro-4-fluorophenyl)-2-methyl-5-(5-(oxazol-5-yl)thiophen-2-yl)-1,2,6-thiadiazinane-3-carboxamide 1,1-dioxide]	1 to 5
CN1[C@H](C(=O)Nc2ccc(F)c(Cl)c2)C[C@H](c2ccc(-c3ccn(C)n3)s2)NS1(=O)=O [HBV-CSU-270-ISO-I, Cis-N-(3-Chloro-4-fluorophenyl)-2-methyl-5-(5-(1-methyl-1H-pyrazol-3-yl)thiophen-2-yl)-1,2,6-thiadiazinane-3-carboxamide 1,1-dioxide]	< 1
CN1[C@@H](C(=O)Nc2ccc(F)c(Cl)c2)C[C@@H](c2ccc(-c3ccn(C)n3)s2)NS1(=O)=O [HBV-CSU-270-ISO-II, Cis-N-(3-Chloro-4-fluorophenyl)-2-methyl-5-(5-(1-methyl-1H-pyrazol-3-yl)thiophen-2-yl)-1,2,6-thiadiazinane-3-carboxamide 1,1-dioxide]	1 to 5
CN1[C@H](C(=O)Nc2ccc(F)c(Cl)c2)C[C@H](c2ccc(-c3ccnn3C)s2)NS1(=O)=O [HBV-CSU-271-ISO-I, Cis-N-(3-chloro-4-fluorophenyl)-2-methyl-5-(5-(1-methyl-1H-pyrazol-5-yl)thiophen-2-yl)-1,2,6-thiadiazinane-3-carboxamide 1,1-dioxide]	< 1
CN1[C@@H](C(=O)Nc2ccc(F)c(Cl)c2)C[C@@H](c2ccc(-c3ccnn3C)s2)NS1(=O)=O [HBV-CSU-271-ISO-II, Cis-N-(3-chloro-4-fluorophenyl)-2-methyl-5-(5-(1-methyl-1H-pyrazol-5-yl)thiophen-2-yl)-1,2,6-thiadiazinane-3-carboxamide 1,1-dioxide]	1 to 5
CN1[C@H](C(=O)Nc2ccc(F)c(Cl)c2)C[C@H](c2ccc(-c3cncnc3)s2)NS1(=O)=O [HBV-CSU-272-ISO-I, Cis-N-(3-chloro-4-fluorophenyl)-2-methyl-5-(5-(pyrimidin-5-yl)thiophen-2-yl)-1,2,6-thiadiazinane-3-carboxamide 1,1-dioxide]	< 1
CN1[C@@H](C(=O)Nc2ccc(F)c(Cl)c2)C[C@@H](c2ccc(-c3cncnc3)s2)NS1(=O)=O [HBV-CSU-272-ISO-II, Cis-N-(3-chloro-4-fluorophenyl)-2-methyl-5-(5-(pyrimidin-5-yl)thiophen-2-yl)-1,2,6-thiadiazinane-3-carboxamide 1,1-dioxide]	> 5
CN1C(C(=O)Nc2ccc(F)c(Cl)c2)CC(c2ccc3ncsc3c2)NS1(=O)=O (stereo not drawn) [HBV-CSU-273, Cis-5-(benzo[d]thiazol-6-yl)-N-(3-chloro-4-fluorophenyl)-2-methyl-1,2,6-thiadiazinane-3-carboxamide 1,1-dioxide]	< 1
CN1[C@H](C(=O)Nc2ccc(F)c(Cl)c2)C[C@H](c2ncc(-c3cn(C)cn3)s2)NS1(=O)=O [HBV-CSU-276-ISO-I, (3S,5R)-N-(3-chloro-4-fluorophenyl)-2-methyl-5-(5-(1-methyl-1H-imidazol-4-yl)thiazol-2-yl)-1,2,6-thiadiazinane-3-carboxamide 1,1-dioxide]	< 1
CN1[C@@H](C(=O)Nc2ccc(F)c(Cl)c2)C[C@@H](c2ncc(-c3cn(C)cn3)s2)NS1(=O)=O [HBV-CSU-276-ISO-II, Cis-N-(3-Chloro-4-fluorophenyl)-2-methyl-5-(5-(1-methyl-1H-imidazol-4-yl)thiazol-2-yl)-1,2,6-thiadiazinane-3-carboxamide 1,1-dioxide]	> 5
CN1[C@@H](C(=O)Nc2ccc(F)c(Cl)c2)C[C@H](c2ncc(-c3cn(C)cn3)s2)NS1(=O)=O [HBV-CSU-276-Trans-ISO-I, (3R,5R)-N-(3-chloro-4-fluorophenyl)-2-methyl-5-(5-(1-methyl-1H-imidazol-4-yl)thiazol-2-yl)-1,2,6-thiadiazinane-3-carboxamide 1,1-dioxide]	< 1
CN1[C@H](C(=O)Nc2ccc(F)c(Cl)c2)C[C@@H](c2ncc(-c3cn(C)cn3)s2)NS1(=O)=O [HBV-CSU-276-Trans-ISO-II, (3S,5S)-N-(3-chloro-4-fluorophenyl)-2-methyl-5-(5-(1-methyl-1H-imidazol-4-yl)thiazol-2-yl)-1,2,6-thiadiazinane-3-carboxamide 1,1-dioxide]	1 to 5
CN1[C@H](C(=O)Nc2ccc(F)c(Cl)c2)C[C@H](c2ncc(-c3cncn3C)s2)NS1(=O)=O [HBV-CSU-277-ISO-I, Cis-N-(3-Chloro-4-fluorophenyl)-2-methyl-5-(5-(1-methyl-1H-imidazol-5-yl)thiazol-2-yl)-1,2,6-thiadiazinane-3-carboxamide 1,1-dioxide]	< 1
CN1[C@@H](C(=O)Nc2ccc(F)c(Cl)c2)C[C@@H](c2ncc(-c3cncn3C)s2)NS1(=O)=O [HBV-CSU-277-ISO-II, Cis-N-(3-Chloro-4-fluorophenyl)-2-methyl-5-(5-(1-methyl-1H-imidazol-5-yl)thiazol-2-yl)-1,2,6-thiadiazinane-3-carboxamide 1,1-dioxide]	> 5
CN1[C@@H](C(=O)Nc2ccc(F)c(Cl)c2)C[C@@H](c2ncc(-c3cncs3)s2)NS1(=O)=O [HBV-CSU-278-ISO-II, Cis-5-([5,5′-Bithiazol]-2-yl)-N-(3-chloro-4-fluorophenyl)-2-methyl-1,2,6-thiadiazinane-3-carboxamide 1,1-dioxide]	> 5
CN1[C@H](C(=O)Nc2ccc(F)c(Cl)c2)C[C@H](c2ncc(-c3ccnn3C)s2)NS1(=O)=O [HBV-CSU-281-ISO-I, Cis-N-(3-Chloro-4-fluorophenyl)-2-methyl-5-(5-(1-methyl-1H-pyrazol-5-yl)thiazol-2-yl)-1,2,6-thiadiazinane-3-carboxamide 1,1-dioxide]	< 1
CN1[C@@H](C(=O)Nc2ccc(F)c(Cl)c2)C[C@@H](c2ncc(-c3ccnn3C)s2)NS1(=O)=O [HBV-CSU-281-ISO-II, Cis-N-(3-Chloro-4-fluorophenyl)-2-methyl-5-(5-(1-methyl-1H-pyrazol-5-yl)thiazol-2-yl)-1,2,6-thiadiazinane-3-carboxamide 1,1-dioxide]	1 to 5
CN1C(C(=O)Nc2ccc(F)c(Cl)c2)CC(c2ccc(Br)c(F)c2)NS1(=O)=O (stereo not drawn) [HBV-CSU-283, Cis-5-(4-Bromo-3-fluorophenyl)-N-(3-chloro-4-fluorophenyl)-2-methyl-1,2,6-thiadiazinane-3-carboxamide 1,1-dioxide]	< 1
CN1[C@H](C(=O)Nc2ccc(F)c(Cl)c2)C[C@H](c2cc(-c3cncn3C)cs2)NS1(=O)=O [HBV-CSU-285-ISO-I, Cis-N-(3-Chloro-4-fluorophenyl)-2-methyl-5-(4-(1-methyl-1H-imidazol-5-yl)thiophen-2-yl)-1,2,6-thiadiazinane-3-carboxamide 1,1-dioxide]	< 1
CN1[C@H](C(=O)Nc2ccc(F)c(Cl)c2)C[C@H](c2cc(-c3cncs3)cs2)NS1(=O)=O [HBV-CSU-286-ISO-I, Cis-N-(3-Chloro-4-fluorophenyl)-2-methyl-5-(4-(thiazol-5-yl)thiophen-2-yl)-1,2,6-thiadiazinane-3-carboxamide 1,1-dioxide]	< 1
CN1[C@@H](C(=O)Nc2ccc(F)c(Cl)c2)C[C@@H](c2cc(-c3cncs3)cs2)NS1(=O)=O [HBV-CSU-286-ISO-II, Cis-N-(3-Chloro-4-fluorophenyl)-2-methyl-5-(4-(thiazol-5-yl)thiophen-2-yl)-1,2,6-thiadiazinane-3-carboxamide 1,1-dioxide]	1 to 5
CN1[C@H](C(=O)Nc2ccc(F)c(Cl)c2)C[C@H](c2cc(-c3ccn(C)n3)cs2)NS1(=O)=O [HBV-CSU-288-ISO-I, Cis-N-(3-Chloro-4-fluorophenyl)-2-methyl-5-(4-(1-methyl-1H-pyrazol-3-yl)thiophen-2-yl)-1,2,6-thiadiazinane-3-carboxamide 1,1-dioxide]	< 1
CN1[C@@H](C(=O)Nc2ccc(F)c(Cl)c2)C[C@@H](c2cc(-c3ccn(C)n3)cs2)NS1(=O)=O [HBV-CSU-288-ISO-II, Cis-N-(3-Chloro-4-fluorophenyl)-2-methyl-5-(4-(1-methyl-1H-pyrazol-3-yl)thiophen-2-yl)-1,2,6-thiadiazinane-3-carboxamide 1,1-dioxide]	1 to 5
CN1[C@@H](C(=O)Nc2ccc(F)c(Cl)c2)C[C@@H](c2cc(-c3ccnn3C)cs2)NS1(=O)=O [HBV-CSU-289-ISO-II, Cis-N-(3-chloro-4-fluorophenyl)-2-methyl-5-(4-(1-methyl-1H-pyrazol-5-yl)thiophen-2-yl)-1,2,6-thiadiazinane-3-carboxamide 1,1-dioxide]	1 to 5
CN1[C@H](C(=O)Nc2ccc(F)c(Cl)c2)C[C@H](c2cc(-c3cncnc3)cs2)NS1(=O)=O [HBV-CSU-290-ISO-I, Cis-N-(3-chloro-4-fluorophenyl)-2-methyl-5-(4-(pyrimidin-5-yl)thiophen-2-yl)-1,2,6-thiadiazinane-3-carboxamide 1,1-dioxide]	< 1
